Laboratory results taken from patent publication US3968204A, “Antibiotic A-2315” (priority 1975, dated 1976).
Converted amounts (≈) assume the structure as drawn.

Legend:
[1] = system: Staphylococcus aureus 3055; test: Agar-dilution MIC; assay type: cell-based; conditions: Agar-Dilution Method, benzylpenicillin-susceptible
[2] = system: Salmonella typhimurium; test: Agar-dilution MIC; assay type: cell-based; conditions: Salmonella enterica, Agar-Dilution Method
[3] = system: Erwinia amylovora; test: Agar-dilution MIC; assay type: cell-based; conditions: Agar-Dilution Method
[4] = system: Clostridium inocuum; test: MIC, anaerobic bacteria; assay type: cell-based
[5] = system: Bacteriodes fragilis ssp. vulgates; test: MIC, anaerobic bacteria; assay type: cell-based
[6] = system: Bacteriodes fragilis ssp. thetaotamicron; test: MIC, anaerobic bacteria; assay type: cell-based
[7] = system: Fusobacterium nucleatum; test: MIC, anaerobic bacteria; assay type: cell-based
[8] = system: Staphylococcus aureus 3055; test: Disc-plate MIC; conditions: Disc-Plate Method; benzylpenicillin-susceptible
[9] = system: Klebsiella pneumoniae KA14; test: Disc-plate MIC; conditions: Disc-Plate Method

For CC1=CC(O)CC(O)Cc2nc(co2)C(=O)NC(C)C(=O)OC(C(C)C)C(C)C=CC(=O)NCC=C1 (stereo not drawn) [Factor A], the MIC [1] was 6.25 µg/mL (≈ 12.4 µM), the MIC [2] was over 100 µg/mL and the MIC [3] was 50 µg/mL (≈ 99.3 µM). For the same compound, the MIC [4] was 32 µg/mL (≈ 63.5 µM), the MIC [5] was 64 µg/mL (≈ 127 µM) and the MIC [6] was 128 µg/mL (≈ 254 µM). For the same compound, the MIC [7] was 128 µg/mL (≈ 254 µM), the MIC [8] was 0.025 μg/disc and the MIC [9] was 50.0 μg/disc.
